Measured values as given in patent US10064861B2, “Macrocyclic pyridazinone derivatives” (Merck Patent GmbH, priority 2013, dated 2018).

What was measured:
[1] = test system: TLR7 induced IL-6 secretion in human mononuclear cells (PBMC's); assay: TLR7 induced IL-6 in human PBMC's; assay type: cell-based; conditions: TLR7 specific ligand 2 uM overnight, IL-6 AlphaLISA
Description: TLR7 Induced IL-6 in Human PBMC's
Human PBMC assay is used as one of the functional assay to monitor the activity of IRAK1 and IRAK4 small molecule inhibitors on TLR7 induced IL-6 secretion in human mononuclear cells (PBMC's). Human PBMCs are prepared from buffy coats (whole blood enriched with leukocytes and platelets) obtained from healthy volunteers used either fresh or frozen are plated in assay media (RPMI+2% P/S/L-glu+10% HI-FBS) and pre-treated with compounds in DMSO/media (range of concentrations from 25 μM to 0.4 nM) or controls (0.25% DMSO) for 30 minutes at 37° C. in assay media. Following pre-treatment with IRAK1 and IRAK4 inhibitors, PBMC's are stimulated with TLR7 specific ligand (2 uM) overnight (16-18 hrs) at 37° C. After incubation supernatant is transferred to 384 well PE AlphaPlate-384 (6005350) and IL-6 is quantified using Perkin Elmer IL-6 Alpha LISA kit (AL223C). Plates are read on an Envision® plate reader with Alpha Technology®.

[2] = target: IRAK4 (Homo sapiens (Human), UniProt Q9NWZ3); assay: IRAK4 enzymatic assay; assay type: biochemical; conditions: His-TEV-IRAK4, ATP 2 μM, STK1-biotin peptide 300 nM, 3 hours at 30° C.
Sequence of IRAK4 (Q9NWZ3 whole entry): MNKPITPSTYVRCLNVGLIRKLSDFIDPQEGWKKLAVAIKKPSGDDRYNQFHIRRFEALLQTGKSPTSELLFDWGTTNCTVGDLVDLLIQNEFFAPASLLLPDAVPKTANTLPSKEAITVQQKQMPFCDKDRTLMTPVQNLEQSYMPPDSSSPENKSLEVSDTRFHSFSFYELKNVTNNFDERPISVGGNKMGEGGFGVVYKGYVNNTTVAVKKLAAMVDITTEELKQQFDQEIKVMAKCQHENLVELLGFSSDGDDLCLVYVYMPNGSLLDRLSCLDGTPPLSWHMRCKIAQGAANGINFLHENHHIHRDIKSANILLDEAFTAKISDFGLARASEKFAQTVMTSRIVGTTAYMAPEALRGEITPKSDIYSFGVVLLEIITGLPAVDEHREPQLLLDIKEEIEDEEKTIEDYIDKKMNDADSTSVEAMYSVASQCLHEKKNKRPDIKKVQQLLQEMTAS
Description: IRAK4 is a human purified recombinant enzyme (His-TEV-IRAK1 (194-712) IRAK4 hydrolyses ATP, autophosphorylates and phosphorylates a Serine/Threonine generic peptidic substrate (STK: 61ST1BLC from CisBio International based in Bagnols/Cèze FR).
Measurement of IRAK-4 inhibition is performed in streptavidin coated 384 well FlashPlate (PerkinElmer #SMP410A). His-TEV-IRAK4 (20 ng/well), ATP (2 μM, [^33P]ATP 0.25 μCi/well), STK1-biotin peptide (300 nM) and compounds in DMSO (range of concentrations from 20 μM to 1 nM) or controls (2% DMSO) are incubated for 3 hours at 30° C. in assay buffer: Hepes pH 7.0 50 mM, Fatty acid-free BSA 0.1%, Dithiothreitol DTT 2 mM, MgCl2 10 mM, EGTA 0.5 mM, Tween-20 0.01%, MnCl2 5 mM.
Kinase reaction is stopped by addition of EDTA. Supernatant is discarded, plates are washed three times with 150 mM NaCl and radioactivity is then measured in a Microbeta Trilux reader.

[3] = target: IRAK1 (Homo sapiens (Human), UniProt P51617); assay: IRAK1 enzymatic assay; assay type: biochemical; conditions: His-TEV-IRAK-1, ATP 1 μM, 3 hours at 30° C.
Sequence of IRAK1 (P51617 194-712): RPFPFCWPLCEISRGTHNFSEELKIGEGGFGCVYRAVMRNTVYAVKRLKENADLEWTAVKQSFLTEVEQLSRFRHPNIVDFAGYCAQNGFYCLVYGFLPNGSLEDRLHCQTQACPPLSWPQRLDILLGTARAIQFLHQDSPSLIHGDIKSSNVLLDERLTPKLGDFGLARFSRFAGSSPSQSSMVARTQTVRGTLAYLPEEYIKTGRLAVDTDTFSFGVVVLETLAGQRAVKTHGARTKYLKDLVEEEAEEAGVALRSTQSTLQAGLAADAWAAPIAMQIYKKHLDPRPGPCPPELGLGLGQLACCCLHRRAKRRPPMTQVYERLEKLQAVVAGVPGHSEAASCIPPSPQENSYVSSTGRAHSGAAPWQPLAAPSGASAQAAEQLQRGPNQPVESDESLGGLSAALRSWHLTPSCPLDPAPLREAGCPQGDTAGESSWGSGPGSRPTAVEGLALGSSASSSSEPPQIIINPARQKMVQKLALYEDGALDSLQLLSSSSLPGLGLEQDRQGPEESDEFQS
Description: IRAK1 is a human purified recombinant enzyme (His-TEV-IRAK1 (194-712)) In this assay, IRAK-1 hydrolyses ATP and autophosphorylates.
Measurement of IRAK-1 inhibition is performed in streptavidin coated 384 well FlashPlate (PerkinElmer #SMP410A).
His-TEV-IRAK-1 (15 ng/well), ATP (1 μM, [^33P]ATP 0.25 μCi/well) and compounds in DMSO (range of concentrations from 20 μM to 1 nM) or controls (2% DMSO) are incubated for 3 hours at 30° C. in assay buffer: Hepes pH 7.0 50 mM, Fatty acid-free BSA 0.1%, Dithiothreitol DTT 2 mM, MgCl2 10 mM, EGTA 0.5 mM, Triton-X-100 0.01%. Kinase reaction is stopped by addition of EDTA. Supernatant is discarded, plates are washed three times with 150 mM NaCl and radioactivity is then measured in a Microbeta Trilux reader.

Row | Structure (SMILES) | IC50 [1] [nM] | IC50 [2] [nM] | IC50 [3] [nM]
1 | O=C1Nc2nc3ccccc3n2C[C@H](O)[C@H]2CCCN(C2)c2ccc(=O)n(n2)Cc2cccc1c2 (stereo in doubt) [Compound 32b, 25-hydroxy-1,6,14,16,23,32-hexaazahexacyclo[24.3.1.1^2,6.1^8,12.0^15,23.0^17,22]dotriaconta-2(32),3,8(31),9,11,15,17(22),18,20-nonaene-5,13-dione] | 100 to 1000 | < 100 | < 100
2 | Cc1ccc2cc1-c1ccc(=O)n(n1)Cc1cccc(c1)C(=O)Nc1nc3ccccc3n1C2 [Compound 8, 3-Methyl-8,15,17,25,29-pentaazahexacyclo[23.3.1.1^2,61^19,230^8,160^9,14]hentriaconta-1(29),2(31),3,5,9(14),10,12,15,19(30),20,22,27-dodecaene-18,26-dione] | 100 to 1000 | < 100 | < 100
3 | COc1ccc2c(c1)nc1n2CC(O)CCOc2ccc(=O)n(n2)Cc2cccc(c2)C(=O)N1 (stereo not drawn) [Compound 35] | – | < 100 | < 100
4 | Cc1nn2c(C)c1-c1ccc(=O)n(n1)Cc1cccc(c1)C(=O)Nc1nc3ccccc3n1CC2 [Compound 28] | – | 100 to 1000 | 100 to 1000
5 | COc1ccc2c(c1)nc1n2CCn2cc(cn2)-c2ccc(=O)n(n2)Cc2cccc(c2)C(=O)N1 [Compound 33] | – | < 100 | < 100
6 | NCCc1ccc2c(c1)nc1n2Cc2cccc(c2)-c2ccc(=O)n(n2)Cc2cccc(c2)C(=O)N1 [Compound 23] | – | < 100 | < 100
7 | CC[C@@H]1c2cccc(c2)C(=O)Nc2nc3ccccc3n2Cc2cccc(c2)-c2ccc(=O)n1n2 [Compound 36b, 24-ethyl-8,15,17,26,29-pentaazahexacyclo[23.3.1.1^2,6.1^19,23.0^8,16.0^9,14]hentriaconta-1(29),2(31),3,5,9(14),10,12,15,19,21,23(30),27-dodecaene-18,26-dione] | – | 100 to 1000 | < 100
8 | Cc1cc(=O)n2nc1-c1cnn(c1)CCn1c(nc3ccccc31)NC(=O)c1cccc(c1)C2 [Compound 26] | – | < 100 | < 100
9 | O=C1Nc2nc3ccccc3n2CCn2cc(cn2)-c2ccc(=O)n(n2)Cc2cccc1c2 [Compound 14, 4,6,8,15,17,25,29-heptaazahexacyclo[23.3.1.12,5.119,23.08,16.09,14]hentriaconta-1(29),2(31),3,9(14),10,12,15,19(30),20,22,27-undecaene-18,26-dione] | 100 to 1000 | – | –
10 | CC[C@H]1c2cccc(c2)C(=O)Nc2nc3ccccc3n2Cc2cccc(c2)-c2ccc(=O)n1n2 [Compound 36a, 24-ethyl-8,15,17,26,29-pentaazahexacyclo[23.3.1.1^2,6.1^19,23.0^8,16.0^9,14]hentriaconta-1(29),2(31),3,5,9(14),10,12,15,19,21,23(30),27-dodecaene-18,26-dione] | – | < 100 | < 100
11 | COc1ccc2cc1-c1ccc(=O)n(n1)Cc1cccc(c1)C(=O)Nc1nc3ccccc3n1C2 [Compound 15, 3-methoxy-8,15,17,25,29-pentaazahexacyclo[23.3.1.1^2,6.1^19,23.0^8,16.0^9,14]hentriaconta-1(29),2(31),3,5,9(14),10,12,15,19(30),20,22,27-dodecaene-18,26-dione] | – | < 100 | < 100
12 | O=C1Nc2nc3ccccc3n2Cc2ccc(F)c(c2)-c2ccc(=O)n(n2)Cc2cccc1c2 [Compound 10, 3-Fluoro-8,15,17,25,29-pentaazahexacyclo[23.3.1.1^2,61^19,230^8,160^9,14]hentriaconta-1(29),2(31),3,5,9(14),10,12,15,19(30),20,22,27-dodecaene-18,26-dione] | – | 100 to 1000 | < 100
13 | O=C1Nc2nc3ccccc3n2CCOc2cccc(c2)-c2ccc(=O)n(n2)Cc2cccc1c2 [Compound 9, 26-oxa-6,14,16,23,33-pentaazahexacyclo[25.3.1.12,6,1^8,12}0^15,23.0^17,22]tritriaconta-1(31),2(33),3,8,10,12(32),15,17,19,21,27,29-dodecaene-5,13-dione] | – | 100 to 1000 | < 100
14 | COc1ccc2cc1CCn1c(nc3ccccc31)NC(=O)c1cccc(c1)Cn1nc-2ccc1=O [Compound 37] | – | < 100 | < 100
15 | O=C1Nc2nc3cc(F)c(F)cc3n2Cc2cccc(c2)-c2ccc(=O)n(n2)Cc2cccc1c2 [Compound 6, 11,12-difluoro-8,15,17,25,29-pentaazahexacyclo[23.3.1.1^2,6.1^9,23.0^8,16.0^9,14]hentriaconta-1(29),2(31),3,5,9(14),10,12,15,19(30),20,22,27-dodecaene-18,26-dione] | – | 100 to 1000 | < 100
16 | O=C1Nc2nc3cc(O)ccc3n2Cc2cccc(c2)-c2ccc(=O)n(n2)Cc2cccc1c2 [Compound 31] | – | 100 to 1000 | < 100
17 | Cc1cc(=O)n2nc1-c1cccc(c1)CCn1c(nc3ccccc31)NC(=O)c1cccc(c1)C2 [Compound 11, 3-methyl-6,14,16,23,32-pentaazahexacyclo[24.3.1.1^2,6.1^8,12.0^15,23.017,22]dotriaconta-1(30),2(32),3,8,10,12(31),15,17,19,21,26,28-dodecaene-5,13-dione] | – | < 100 | < 100
18 | Cc1cc(=O)n2nc1-c1cccc(c1)Cn1c(nc3ccccc31)NC(=O)c1cccc(c1)C2 [Compound 4, 28-Methyl-8,15,17,25,29-pentaazahexacyclo[23.3.1.1^2,61^19,230^8,160^9,14]hentriaconta-1(29),2(31),3,5,9(14),10,12,15,19(30),20,22,27-dodecaene-18,26-dione] | – | 100 to 1000 | < 100
19 | CC1c2cccc(c2)C(=O)Nc2nc3ccccc3n2Cc2cccc(c2)-c2ccc(=O)n1n2 (stereo not drawn) [Compound 24] | – | < 100 | < 100
20 | O=C1Nc2nc3cc(CN4CCOCC4)ccc3n2Cc2cccc(c2)-c2ccc(=O)n(n2)Cc2cccc1c2 [Compound 27] | – | < 100 | < 100
21 | O=C1Nc2nc3ccccc3n2Cc2ccc(Cl)c(c2)-c2ccc(=O)n(n2)Cc2cccc1c2 [Compound 13, 3-chloro-8,15,17,25,29-pentaazahexacyclo[23.3.1.1^2,6.1^19,23.0^8,16.0^9,14]hentriaconta-1(29),2(31),3,5,9(14),10,12,15,19(30),20,22,27-dodecaene-18,26-dione] | – | 100 to 1000 | < 100
22 | O=C1Nc2nc3ccccc3n2CCc2cc(ccc2O)-c2ccc(=O)n(n2)Cc2cccc1c2 [Compound 38] | – | < 100 | < 100
23 | COc1cc2nc3n(c2cc1OC)CCn1cc(cn1)-c1ccc(=O)n(n1)Cc1cccc(c1)C(=O)N3 [Compound 22] | – | < 100 | < 100
24 | Cc1cc(=O)n2nc1OCCC(O)Cn1c(nc3ccccc31)NC(=O)c1cccc(c1)C2 (stereo not drawn) [Compound 30] | – | < 100 | < 100
25 | COc1ccc2cc1Cn1c(nc3ccccc31)NC(=O)c1cccc(c1)Cn1nc-2ccc1=O [Compound 19, 5-methoxy-8,15,17,25,29-pentaazahexacyclo[23.3.1.1^2,6.1^19,23.0^8,16.0^9,14]hentriaconta-1(29),2(31),3,5,9(14),10,12,15,19(30),20,22,27-dodecaene-18,26-dione] | – | < 100 | 100 to 1000
26 | O=C1Nc2nc3ccccc3n2Cc2cncc(c2)-c2ccc(=O)n(n2)Cc2cccc1c2 [Compound 7, 4,8,15,17,25,29-hexaazahexacyclo[23.3.1.1^2,6.1^19,23.0^8,16.0^9,14]hentriaconta-1(29),2(31),3,5,9(14),10,12,15,19(30),20,22,27-dodecaene-18,26-dione] | < 100 | < 100 | –
27 | O=C1Nc2nc3ccccc3n2C/C=C\COc2ccc(=O)n(n2)Cc2cccc1c2 [Compound 34] | – | < 100 | < 100
28 | COc1ccc2c(c1)nc1n2Cc2cccc(c2)-c2ccc(=O)n(n2)Cc2cccc(c2)C(=O)N1 [Compound 29] | – | < 100 | < 100
